How the values were obtained:
[1] = test system: recombinant retrovirus of murine origin (MoMLV); assay: Residual virus (clones of βgal+ cells) after infection of mouse 3T3 test cells with LacZ recombinant MoMLV retrovirus; format: cell-based; settings: 3T3 cells; for residual virus (% not inhibited) at 10 µM: 10^-5 M; for residual virus (% not inhibited) at 1 µM: 10^-6 M
Procedure: The virus used is a recombinant retrovirus of murine origin (MoMLV) in which a reporter gene (LacZ) has been introduced.
Fixed amounts of LacZ recombinant retroviruses are placed in the presence of mouse infectable test cells (3T3) with or without the product to be tested. To each recombinant retrovirus corresponds a clone of β gal^+ cells. The number of clones of βgal^+ cells is read 48 hours after the infection. The % of the residual virus (not inhibited by the product) is indicated in the following table (mean of several independent experiments): […]

[2] = test system: human T lymphocytes; assay: Cytotoxicity of the products for human T lymphocytes; format: cell-based
Procedure: (§1) Each product was dissolved in DMSO at a concentration of 10^-3 M (stock solution), then in the culture medium immediately before use. The solution thus obtained was sterilized by filtration on a 0.22μ Millipore, then successive dilutions were made in the culture medium.
(§2) The cultures of human T lymphocytes are maintained in the medium RPMI 1640 containing 10% fetal calf serum (Seromeal), 1% of glummine (Gibco), 1% of antibiotics (PSN, Gibco), 10% of interleukin II (Biotest), 2 μg/ml of polybrene (Sigma) and a 1/2500 dilution of α-human semm-interferon. This medium is called complete medium.
The cytotoxicity of the products was studied on human T lymphocytes obtained from peripheral blood of a sero-negative donor. Prior to the treatment, these lymphocytes are stimulated by phytohemagglutinin p (pHAp) (Difco) for 3 days.
a) Study of the cytotoxicity of the products for the T cells.
10^6 lymphocytes stimulated by pHAp were treated for 10 days by increasing doses of the product (10^-5 M; 5×10^-6 M; 10^-6 M). The product was added at each cell passage carried out every 3 or 4 days. At each passage, the cells were counted after staining with trypan blue then resuspended at 10^6 cells per ml in the complete medium containing or not increasing doses of the product. This experiment was carried out in a plate with 24 wells (Munc).

[3] = test system: HIV-1 virus; assay: Effect of the products on the infectious potency of the HIV-1 virus in human T lymphocytes (reverse transcriptase activity); format: cell-based, HIV-1 virus (LAV strain); settings: treatment after viral absorption (FIG. 2)
Procedure: as §1
as §2, with “medium. […]” for “medium.”
Human lymphocytes stimulated beforehand by means of pHAp were infected by the HIV-1 virus (reverse transcriptase activity: 5000 cmp/10^6 cells). […] The viral production was monitored at each passage (and this for 13 days) by measuring the reverse transcriptase activity present in 1 ml of culture supernatant. […]
The production of the HIV-1 virus by human T cells treated or not by each product was regularly monitored by measuring the reverse transcriptase activity present in 1 ml of culture supernatant. […] After 1 hour of incubation of 37° C., the acid-insoluble products are precipitated by 20% trichloroacetic acid, filtered on 0.45μ Millipore, then the β radioactivity contained in these reaction products is measured with the aid of a Kontron scintillation counter.

[4] = NIH3T3, 48 hours after infection, mean of several experiments, read-out: % of the residual virus (not inhibited by the product)

SMILES | residual virus (% not inhibited) at 10 µM [1, 4] [%] | residual virus (% not inhibited) at 1 µM [1, 4] [%] | residual virus (% not inhibited) at 0.1 µM ([1]; NIH3T3, 10^-7 M, 48 hours after infection, mean of several experiments, read-out: % of the residual virus (not inhibited by the product)) [%] | retroviral activity (in words) ([1]; recombinant MoMLV) | effect on cell multiplication ([2]; same doses, 3 days) | inhibition of the multiplication of the virus ([3]; dose proportional) | residual virus (% not inhibited) at 100 µM ([1]; NIH3T3, 10^-4 M, 48 hours after infection, mean of several experiments, read-out: % of the residual virus (not inhibited by the product)) [%] | effect on the growth of T cells ([2]; treatment of 10 days, at the doses used (FIG. 1)) | inhibition of the multiplication of the virus ([3]; 10^-5 M)
Cc1cn([C@H]2CC[C@@H](COP(=O)(O)OC[C@H]3OC(O)[C@H](O)[C@@H](O)[C@@H]3O)O2)c(=O)[nH]c1=O (some centres unmarked) [compound 6714, 6-glucosyl 5'-(3'-deoxy)-thymidinyl phosphate] | 4 | 12 | 66 | active by themselves | no effect is observed on cell multiplication | partial inhibition proportional to the dose of the product used | – | – | –
CCCCCCCCCCCCCCCCOP(=O)(OC[C@H]1OC(O)[C@H](O)[C@@H](O)[C@@H]1O)OC[C@H]1O[C@@H](n2cc(C)c(=O)[nH]c2=O)C[C@@H]1N=[N+]=[N-] (some centres unmarked) [compound 6651, 6-glucosyl hexadecyl 5'-(3'-azido) thymidinyl phosphate] | 65 | 94 | – | – | – | – | 11 | without significant effect on the growth of T cells | total inhibition of the multiplication of the virus

Source: US5393744A, “Glucosyl phosphotriesters of thymidine” (Institut Pasteur, priority 1988, dated 1995)
